# Laboratory results published in paper PMC7423246, “A Peptide–Lectin Fusion Strategy for Developing a Glycan Probe for Use in Various Assay Formats” (Chemosensors (Basel, Switzerland), 2019).
# Target: T1, Pseudomonas fluorescens agglutinin (PFA) (Pseudomonas fluorescens, UniProt Q3KJ04)
# T1 construct: gene Pfl01_0508; 14 kDa
# T1 sequence (Q3KJ04 1-133): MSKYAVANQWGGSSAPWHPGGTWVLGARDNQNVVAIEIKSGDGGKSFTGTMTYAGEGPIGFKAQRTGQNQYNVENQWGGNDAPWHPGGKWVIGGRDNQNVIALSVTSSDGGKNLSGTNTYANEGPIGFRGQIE
# Assay: competitive ELISA on immobilized gp120
# Conditions: inhibition of PFA binding to immobilized gp120, 400 nM PFA, 0-2000 mM mannose, room temperature not stated for this step
structure (smiles),measurement,value
OC[C@H]1OC(O)[C@@H](O)[C@@H](O)[C@@H]1O (stereo partly shown) [mannose],onset of inhibition,~ 200 mM
